This assay has as its target T1, human TLR7 (Homo sapiens, UniProt Q9NYK1).
T1 sequence (Q9NYK1 27-1049): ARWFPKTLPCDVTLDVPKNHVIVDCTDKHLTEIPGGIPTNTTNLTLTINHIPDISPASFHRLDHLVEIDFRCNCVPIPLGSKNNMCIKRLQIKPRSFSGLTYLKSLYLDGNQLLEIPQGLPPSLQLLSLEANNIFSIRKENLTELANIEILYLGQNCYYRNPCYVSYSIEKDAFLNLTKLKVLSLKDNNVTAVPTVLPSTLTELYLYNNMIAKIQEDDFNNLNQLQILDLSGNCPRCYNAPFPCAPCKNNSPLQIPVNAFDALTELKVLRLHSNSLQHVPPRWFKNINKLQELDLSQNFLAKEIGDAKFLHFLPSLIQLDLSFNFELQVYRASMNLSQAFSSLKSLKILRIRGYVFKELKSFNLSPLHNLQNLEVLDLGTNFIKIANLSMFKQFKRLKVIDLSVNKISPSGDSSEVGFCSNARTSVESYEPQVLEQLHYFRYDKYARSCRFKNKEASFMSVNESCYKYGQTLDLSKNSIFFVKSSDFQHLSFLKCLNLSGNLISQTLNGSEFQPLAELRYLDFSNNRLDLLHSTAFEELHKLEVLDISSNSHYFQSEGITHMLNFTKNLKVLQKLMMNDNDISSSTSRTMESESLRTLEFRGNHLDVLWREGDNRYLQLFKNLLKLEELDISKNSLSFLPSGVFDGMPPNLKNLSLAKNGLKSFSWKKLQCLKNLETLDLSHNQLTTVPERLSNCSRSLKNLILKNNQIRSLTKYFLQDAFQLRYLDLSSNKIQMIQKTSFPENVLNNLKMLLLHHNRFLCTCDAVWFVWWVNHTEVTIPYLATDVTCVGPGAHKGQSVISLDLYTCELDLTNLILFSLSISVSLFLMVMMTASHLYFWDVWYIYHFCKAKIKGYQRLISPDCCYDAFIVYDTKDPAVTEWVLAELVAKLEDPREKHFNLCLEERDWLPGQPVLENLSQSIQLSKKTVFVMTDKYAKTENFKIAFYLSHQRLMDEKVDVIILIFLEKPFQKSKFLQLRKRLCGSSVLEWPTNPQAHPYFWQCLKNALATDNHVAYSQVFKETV
As to the kind of experiment: HEK293-Blue-hTLR-7 cells assay (SEAP reporter, R848 stimulation). It is filed as cell-based. Particulars: HEK293-Blue-hTLR7 cells, R848 ligand, 20 hrs incubation. An outline of the steps:
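Antagonism measured in stable HEK293-Blue-hTLR7 cells carrying an NF-κB/AP-1-driven SEAP reporter, stimulated with R848 (10 µL of 20 µM stock) with serially diluted compound, 1% DMSO, 20 h at 37 °C. Supernatant SEAP read with QUANTI-Blue after 2 h at 37 °C, absorbance 620–655 nm.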
As a reminder, the IC50 is the concentration that inhibits the measured activity by half. For `N#Cc1ccc(N2CC(CN3CC4(CC(N)C4)C3)C3(CC3)C2)c2nccnc12` (centres unmarked) [Example 42, 8-[7-[(6-Amino-2-azaspiro[3.3]heptan-2-yl)methyl]-5-azaspiro[2.4]heptan-5-yl]quinoxaline-5-carbonitrile], the IC50 amounted to 867 nM.

The compound `N#Cc1ccc(N2CC(CN3CCC4(CCCNC4)CC3)C3(CC3)C2)c2nccnc12` (centres unmarked) [Example 13, 8-[7-(2,9-Diazaspiro[5.5]undecan-9-ylmethyl)-5-azaspiro[2.4]heptan-5-yl]quinoxaline-5-carbonitrile] gave an IC50 of 102 nM.

Regarding `N#Cc1ccc(N2CC(CN3CCC(N)CC3)C3(CC3)C2)c2nccnc12` (centres unmarked) [Example 68, 8-[7-[(4-Amino-1-piperidyl)methyl]-5-azaspiro[2.4]heptan-5-yl]quinoxaline-5-carbonitrile], the IC50 was found to be 75 nM. The IC50 values of the last two compounds are within 1.5-fold of each other.

As for `FC(F)(F)c1ccc(N2CC(CN3CCNCC3)C3(CC3)C2)c2nccnc12` (centres unmarked) [Example 20, 5-[7-(Piperazin-1-ylmethyl)-5-azaspiro[2.4]heptan-5-yl]-8-(trifluoromethyl)quinoxaline], half-maximal inhibition (IC50) was put at 156 nM.

As for `N#Cc1ccc(N2C[C@H](CN3CC4(CCNCC4)C3)[C@@H](C(F)(F)F)C2)c2nccnc12` [Example 48, 8-[(3S,4R)-3-(2,7-diazaspiro[3.5]nonan-2-ylmethyl)-4-(trifluoromethyl)pyrrolidin-1-yl]quinoxaline-5-carbonitrile], the IC50 was determined as 51 nM.

`N#Cc1ccc(N2C[C@H](CN3CCC4(CCNC4)C3)[C@@H](C(F)(F)F)C2)c2nccnc12` (stereo partly drawn) [Example 5, 8-[(3S,4R)-3-(2,7-diazaspiro[4.4]nonan-2-ylmethyl)-4-(trifluoromethyl)pyrrolidin-1-yl]quinoxaline-5-carbonitrile] showed an IC50 of 36 nM.

Take `CN(C)C[C@@H]1CCN(C[C@H]2CN(c3ccc(C#N)c4nccnc34)C[C@@H]2C(F)(F)F)C1` [Example 82, 8-[(3S,4R)-3-[[(3S)-3-[(dimethylamino)methyl]pyrrolidin-1-yl]methyl]-4-(trifluoromethyl)pyrrolidin-1-yl]quinoxaline-5-carbonitrile]: the 50% inhibitory concentration (IC50) came out at 106 nM. Against the preceding compound, the IC50 is about 2.9-fold higher.

Regarding `N#Cc1ccc(N2C[C@H](CN3CCC4(CCNC4)CC3)[C@@H](C(F)(F)F)C2)c2nccnc12` [Example 14, 8-[(3S,4R)-3-(2,8-Diazaspiro[4.5]decan-8-ylmethyl)-4-(trifluoromethyl)pyrrolidin-1-yl]quinoxaline-5-carbonitrile], half-maximal inhibition (IC50) was put at 43 nM. This IC50 lies about 2.5-fold lower than the previous one.

The compound `N#Cc1ccc(N2C[C@H](CN3CCCC(F)(CN)C3)[C@@H](C(F)(F)F)C2)c2nccnc12` (stereo partly drawn) [Example 78, 8-[(3S,4R)-3-[[3-(aminomethyl)-3-fluoro-1-piperidyl]methyl]-4-(trifluoromethyl)pyrrolidin-1-yl]quinoxaline-5-carbonitrile] displayed an IC50 of 32 nM.

Take `N#Cc1ccc(N2CC(CN3CCC4NCC4C3)C3(CC3)C2)c2nccnc12` (centres unmarked) [Example 66, 8-[7-(3,7-Diazabicyclo[4.2.0]octan-3-ylmethyl)-5-azaspiro[2.4]heptan-5-yl]quinoxaline-5-carbonitrile]: the IC50 was determined as 63 nM.

Turning to `N#Cc1ccc(N2CC(CN3CCC4(CC3)CNCCO4)C3(CC3)C2)c2nccnc12` (centres unmarked) [Example 49, 8-[7-(1-Oxa-4,9-diazaspiro[5.5]undecan-9-ylmethyl)-5-azaspiro[2.4]heptan-5-yl]quinoxaline-5-carbonitrile], the midpoint of inhibition, the IC50, lay at 153 nM.
